What all share (assay type): functional
Common to all, as to settings: read-out: IZ

Test [1] deals with Staphylococcus aureus. In words: Antibacterial activity against Staphylococcus aureus assessed as growth inhibition at 600 ug/ml by NCCLS […] method. A general note: Dilution methods test growth across graded concentrations, often in twofold steps.
In test [2] the test system is Bacillus pumilus. Briefly: Antibacterial activity against Bacillus pumilus assessed as growth inhibition at 900 ug/ml by NCCLS […] method.
For test [3], the system named is Bacillus pumilus. Briefly: Antibacterial activity against Bacillus pumilus assessed as growth inhibition at 600 ug/ml by NCCLS […] method.
Test [4] deals with Priestia megaterium. In words: Antibacterial activity against Bacillus megaterium assessed as growth inhibition at 900 ug/ml by NCCLS […] method.
Test [5] has as its system Priestia megaterium. Briefly: Antibacterial activity against Bacillus megaterium assessed as growth inhibition at 600 ug/ml by NCCLS […] method.
Test [6] relates to Bacillus subtilis. Briefly: Antibacterial activity against Bacillus subtilis assessed as growth inhibition at 900 ug/ml by NCCLS […] method.
The test system of test [7] is Bacillus subtilis. Briefly: Antibacterial activity against Bacillus subtilis assessed as growth inhibition at 600 ug/ml by NCCLS […] method.
The subject of test [8] is Klebsiella aerogenes. In words: Antibacterial activity against Enterobacter aerogenes assessed as growth inhibition at 900 ug/ml by NCCLS […] method.
The test system of test [9] is Klebsiella aerogenes. Briefly: Antibacterial activity against Enterobacter aerogenes assessed as growth inhibition at 600 ug/ml by NCCLS […] method.
Test [10] concerns Klebsiella pneumoniae. Briefly: Antibacterial activity against Klebsiella pneumoniae assessed as growth inhibition at 900 ug/ml by NCCLS […] method.
In test [11] the test system is Klebsiella pneumoniae. Briefly: Antibacterial activity against Klebsiella pneumoniae assessed as growth inhibition at 600 ug/ml by NCCLS […] method.
Test [12] deals with Proteus mirabilis. In words: Antibacterial activity against Proteus mirabilis assessed as growth inhibition at 900 ug/ml by NCCLS […] method.
In test [13] the test system is Proteus mirabilis. Briefly: Antibacterial activity against Proteus mirabilis assessed as growth inhibition at 600 ug/ml by NCCLS […] method.
The subject of test [14] is Proteus vulgaris. In words: Antibacterial activity against Proteus vulgaris assessed as growth inhibition at 900 ug/ml by NCCLS […] method.
For test [15], the system named is Proteus vulgaris. Briefly: Antibacterial activity against Proteus vulgaris assessed as growth inhibition at 600 ug/ml by NCCLS […] method.
Test [16] deals with Escherichia coli. In words: Antibacterial activity against Escherichia coli assessed as growth inhibition at 900 ug/ml by NCCLS […] method.
Test [17] has as its system Streptococcus pyogenes. Briefly: Antibacterial activity against Streptococcus pyogenes assessed as growth inhibition at 600 ug/ml by NCCLS […] method.
The subject of test [18] is Streptococcus pyogenes. In words: Antibacterial activity against Streptococcus pyogenes assessed as growth inhibition at 900 ug/ml by NCCLS […] method.
The test system of test [19] is Staphylococcus aureus. In words: Antibacterial activity against Staphylococcus aureus assessed as growth inhibition at 900 ug/ml by NCCLS […] method.
Test [20] concerns Escherichia coli. In words: Antibacterial activity against Escherichia coli assessed as growth inhibition at 600 ug/ml by NCCLS […] method.
For test [21], the system named is Fusarium oxysporum. In words: Antifungal activity against Fusarium oxysporum assessed as growth inhibition at 900 ug/ml.
Test [22] deals with Fusarium oxysporum. In words: Antifungal activity against Fusarium oxysporum assessed as growth inhibition at 600 ug/ml.
For test [23], the system named is Fusarium oxysporum. In words: Antifungal activity against Fusarium oxysporum assessed as growth inhibition at 300 ug/ml.
Test [24] concerns Candida albicans. In words: Antifungal activity against Candida albicans assessed as growth inhibition at 1200 ug/ml.
The subject of test [25] is Candida albicans. In words: Antifungal activity against Candida albicans assessed as growth inhibition at 900 ug/ml.
In test [26] the test system is Candida albicans. Briefly: Antifungal activity against Candida albicans assessed as growth inhibition at 600 ug/ml.
For test [27], the system named is Candida albicans. In words: Antifungal activity against Candida albicans assessed as growth inhibition at 300 ug/ml.
Test [28] deals with Colletotrichum falcatum. In words: Antifungal activity against Glomerella tucumanensis assessed as growth inhibition at 1200 ug/ml.
Test [29] relates to Colletotrichum falcatum. Briefly: Antifungal activity against Glomerella tucumanensis assessed as growth inhibition at 900 ug/ml.
Test [30] has as its system Colletotrichum falcatum. Briefly: Antifungal activity against Glomerella tucumanensis assessed as growth inhibition at 600 ug/ml.
Test [31] deals with Colletotrichum falcatum. Briefly: Antifungal activity against Glomerella tucumanensis assessed as growth inhibition at 300 ug/ml.
Test [32] relates to Exserohilum rostratum. In words: Antifungal activity against Setosphaeria rostrata assessed as growth inhibition at 1200 ug/ml.
Test [33] deals with Exserohilum rostratum. Briefly: Antifungal activity against Setosphaeria rostrata assessed as growth inhibition at 900 ug/ml.
Test [34] deals with Exserohilum rostratum. In words: Antifungal activity against Setosphaeria rostrata assessed as growth inhibition at 600 ug/ml.
Test [35] deals with Exserohilum rostratum. In words: Antifungal activity against Setosphaeria rostrata assessed as growth inhibition at 300 ug/ml.
The test system of test [36] is Fusarium oxysporum. In words: Antifungal activity against Fusarium oxysporum assessed as growth inhibition at 1200 ug/ml.

Turning to `CN[C@@H]1[C@H](O[C@H]2[C@H](O[C@H]3[C@H](O)[C@@H](O)[C@H](N=C(N)N)[C@@H](O)[C@@H]3N=C(N)N)O[C@@H](C)[C@]2(O)C=O)O[C@@H](CO)[C@H](O)[C@H]1O` [STREPTOMYCIN], the zone of inhibition at 600 µg/mL in test [1] came to 10.3 mm; in [3], 7.25 mm; in test [5], 6.23 mm; in test [7], 8.44 mm; in test [9] it was 4.47 mm; in test [11], 3.24 mm. Moreover, the zone of inhibition at 600 µg/mL in [13] is 12.8 mm; in test [15], 8.9 mm; in [17], 8.19 mm; in test [20], 3.06 mm. Further, the zone of inhibition at 900 µg/mL was 14.5 mm in test [2]; 12.8 mm in [4]; 16.2 mm in test [6]; 8.76 mm in test [8]; 6.54 mm in test [10]; 20.3 mm in [12]. The zone of inhibition at 900 µg/mL was 16.1 mm in [14], 6.14 mm in test [16], 16.5 mm in test [18] and 20 mm in [19].
In the case of `COc1ccc2c(OCCCN3CCN(Cc4ccc[nH]4)CC3)c(-c3ccccc3)c(=O)oc2c1`, the zone of inhibition at 600 µg/mL in test [1] is 14.8 mm; in test [3], 7.49 mm; in [5] it was 6.32 mm; in [7] it was 4.21 mm; in test [9], 4.78 mm; in [11], 4.21 mm. Moreover, the zone of inhibition at 600 µg/mL came out at 10.9 mm in test [13]; 8.12 mm in [15]; 10.2 mm in test [22]; 7.77 mm in [26]; 9.1 mm in test [17]; 3.22 mm in [20]. Further, the results for the zone of inhibition at 600 µg/mL in test [30] and in [34] were 5.84 mm and 7.01 mm, respectively. Further, the zone of inhibition at 900 µg/mL in test [2] was found to be 15.5 mm; in [4] it was 12.4 mm; in test [6] it was 7.87 mm; in [8], 8.9 mm; in test [10], 8.12 mm; in [12], 19.4 mm. In addition, the zone of inhibition at 900 µg/mL came out at 16 mm in [14]; 6.04 mm in test [16]; 20 mm in test [21]; 13.9 mm in test [25]; 18 mm in [18]; 25.3 mm in [19]. The zone of inhibition at 900 µg/mL in [29] came out at 10.1 mm; in [33], 13.9 mm. The zone of inhibition at 300 µg/mL in [23] worked out at 5.34 mm; in test [27] it was 4.02 mm; in test [31], 3.02 mm; in test [35] it was 3.54 mm. Further, the zone of inhibition at 1200 µg/mL is 27 mm in test [24], 19.6 mm in [28], 25.3 mm in [32] and 31.6 mm in test [36].
`CCC(C)n1ncn(-c2ccc(N3CCN(c4ccc(OCC5COC(Cn6cncn6)(c6ccc(Cl)cc6Cl)O5)cc4)CC3)cc2)c1=O` (configuration not stated) [ITRACONAZOLE]: the zone of inhibition at 900 µg/mL stood at 20 mm in test [21], 12 mm in [25], 18.3 mm in test [29] and 14.8 mm in test [33]. For the same compound, the zone of inhibition at 600 µg/mL in test [22] amounted to 10.8 mm; in [26], 5.35 mm; in test [30], 9.34 mm; in [34], 7.56 mm. In addition, the zone of inhibition at 300 µg/mL was found to be 5.46 mm in test [23], 2.67 mm in [27], 4.45 mm in [31] and 3.56 mm in test [35]. In addition, the zone of inhibition at 1200 µg/mL worked out at 23 mm in test [24], 33.8 mm in test [28], 27.4 mm in [32] and 34.4 mm in [36].

These data come from ChEMBL document CHEMBL3045792, “Synthesis, antimicrobial activity, and molecular modeling of novel 4-(3-(4-benzylpiperazin-1-yl)propoxy)-7-methoxy-3-substituted phenyl-2H-chromen-2-one” (2013).
